Article PMC12786457, “Studies on the Complexation of Platinum(II) by Some 4-Nitroisothiazoles and the Cytotoxic Activity of the Resulting Complexes” (Molecules, 2025)
Read-outs that look alike come from different tables or passages of the source.

Key:
[1] = Solubility in solvents (qualitative); type: physicochemical
[2] = TLC Rf as a measure of relative lipophilicity; type: physicochemical; details: silica gel TLC Al foils
[3] = Reactivity with L-glutathione (GSH), UV photometry at 260 nm; type: in vitro ADME; details: for Half-time, t1/2 of reaction with GSH: 2 mM GSH, 10 mmol/L NaCl, 10 mmol/L Tris x HCl pH 7.4, 37 °C, UV 260 nm
Excerpt: Deactivation of platinum anticancer drugs occurs in the organism at both systemic and intracellular levels. After intravenous administration, these drugs undergo a series of metabolic processes, and the concentration of their active forms can be reduced by various mechanisms. At the systemic level, the first step in deactivation is plasma protein binding: Platinum drugs rapidly bind to plasma proteins (over 90%), especially albumin [32]. […] At the cellular level, platinum drugs are neutralized by binding to intracellular proteins and peptides such as glutathione and metallothionein [33]. Binding to peptide and protein thiol and thioether moieties, which are the primary binding sites for such reactions, prevents the drug from reaching DNA and may be responsible for its nephrotoxicity. As in previous studies, we assessed the susceptibility of the tested compounds to this type of inactivation in the cancer tissues by measuring the half-life of the compound in an aqueous solution containing a physiological concentration of the reduced form of glutathione (GSH) using UV photometry at a wavelength of 260 nm similarly as in Hagrman et al.. Using the same methodology allowed us to directly compare the GHS reactivity of nitroisothiazole compounds with their pyrazole and isoxazole analogues. As a control, the UV spectra of complexes C1 and C2 in dioxane were recorded to check whether there was excessive absorption at a wavelength of 260 nm, which could interfere with the measurement of the reaction of the complexes with glutathione (visualization of the UV spectra can be found in the Supplementary Materials, Figures S46 and S47).
The experiment was conducted in a similar manner to that described in previous publications. First, 30 μL of 60 mM solution of the appropriate complex (cis C1, trans C2, trans C3 and trans C4) in purified and anhydrous distilled dioxane was mixed with 3 mL of a 2 mM solution of reduced L-glutathione (GSH) in an argon-saturated medium containing 10 mmol/L NaCl and 10 mmol/L Tris x HCl buffer, pH 7.4, to achieve a final concentration of 6 µM of the tested complexes. The measurement was carried out at 37 °C. The progress of the reaction was monitored by UV absorption spectrometry at a wavelength of 260 nm. Dioxane was used to dissolve the tested Pt complexes due to the lack of UV absorption of this solvent at the used wavelength. The GSH solution was saturated with argon to remove oxygen and thus prevent oxidation of GSH with the formation of S-S bonds, which would interfere with the measurement results.

[4] = test system: A549 (lung adenocarcinoma); assay: SRB (sulforhodamine B) viability assay, A549; type: cell-based, human; details: for IC50 ± SD, A549 (Lung), Hypoxia / IC50: SRB assay
Protocol: The cytotoxicity of the complexes C1–C5 was estimated by examining cell viability using the sulforhodamine B assay. […] However, due to the very poor solubility of the most polar complex C5 in acetone, its initial solution had to be prepared in polar N,N-dimethylacetamide (DMA) (see Section 3.7). Cisplatin was used as the reference drug. The results are presented as IC50 (50% inhibitory concentration), i.e., concentrations that reduce cell survival by 50%. The test was conducted on three cancer cell lines and one normal healthy cell line, namely, breast adenocarcinoma (MCF-7), ovarian adenocarcinoma (ES-2), lung adenocarcinoma (A549), and murine embryonic fibroblast (BALB/3T3).
Three solid tumor cell lines were used in this study: MCF-7 (breast adenocarcinoma), ES-2 (ovarian adenocarcinoma), and A549 (lung adenocarcinoma). The BALB/3T3 (mouse embryonic fibroblast) cell line was used as a comparative nonpathological tissue. All cell lines were purchased from the American Type Culture Collection (ATCC, Rockville, MD, USA). The preparation of cell cultures for cytotoxicity experiments is described in detail in the following article.
The initial solutions for subsequent dilutions in biological medium were prepared in a similar manner as described previously. […] The complex C5 was dissolved in the dimethylacetamide (DMA). All the initial solutions were prepared ex tempore and then were added to the culture medium 1:9 (v/v) to obtain a stock solution of 1 mg/mL.
The test was prepared and performed in the same manner as detailed in the following cited works.

[5] = normoxia, read-out: IC50 ± SD, A549 (Lung), Normoxia

| Half-time, t1/2 of reaction with GSH ([3]; listed as cis-complex C1) | reaction with GSH, times faster than cisplatin ([3]; from half-times of Table 5) | Compound | solubility in acetone [1] | solubility in chloroform [1] | Rf, Eluent: Chlorofom:Acetone Ratio 9:7 Vol. [2] | Half-time, t1/2 of reaction with GSH [3] | reaction with GSH, times faster than transplatin ([3]; from half-times of Table 5) | IC50 ± SD, A549 (Lung), Hypoxia ([4]; hypoxia) | IC50 [4, 5] | reaction with GSH, times faster than oxaliplatin ([3]; from half-times of Table 5) | IC50 ([4]; hypoxia, read-out: IC50 ± SD, A549 (Lung), Hypoxia) | selectivity index (SI), healthy cells vs A549 ([4]; ratio of cytotoxicity towards healthy BALB/3T3 cells to cytotoxicity towards A549) | Half-time, t1/2 of reaction with GSH ([3]; listed as trans-complex C3) |
| --- | --- | --- | --- | --- | --- | --- | --- | --- | --- | --- | --- | --- | --- |
| – | – | COC(=O)c1snc(C)c1[N+](=O)[O-].COC(=O)c1snc(C)c1[N+](=O)[O-].[Cl][Pt][Cl] [C4, trans-Dichlorobis(3-methyl-4-nitro-5-(methoxycarbonyl)isothiazole)platinum(II)] | slightly soluble | very poorly soluble | 0.849 | ~0.167 min | 24 times | inactive | 40.3 ± 19.9 µM | – | – | – | – |
| – | – | Cc1nscc1[N+](=O)[O-].Cc1nscc1[N+](=O)[O-].[Cl][Pt][Cl] [C2, trans-Dichlorobis(3-methyl-4-nitroisothiazole)platinum(II)] | weakly soluble | – | 0.756 | ~29 min | – | – | 6.34 ± 1.47 µM | about 1.5 times | 6.52 ± 2.28 µM | 0.2 | – |
| – | – | COC(=O)c1snc(C)c1[N+](=O)[O-].Cc1nscc1[N+](=O)[O-].[Cl][Pt][Cl] [C3, trans-Dichloro-3-methyl-4-nitroisothiazole 3-Methyl-4-nitro-5-(methoxycarbonyl)isothiazole Platinum(II)] | slightly soluble | very poorly soluble | 0.814 | about 20 s | 12 times | inactive | 5.74 ± 0.65 µM | – | – | – | 0.333 min |
| 16 min | approximately three | Dichlorobis(3-methyl-4-nitroisothiazole)platinum(II) [C1] | – | – | 0.442 | about 16 min | – | inactive | 31.4 ± 18.8 µM | – | – | – | – |
